Measurements as given in ChEMBL document CHEMBL4840371 (Bioorg Med Chem, 2021).

How the values were obtained:
[1] = Inhibition of Escherichia coli recombinant his-tagged DHDPS using (S)-aspartate-semialdehyde as a substrate preincubated for 12 mins followed by substrate addition by UV-Vis spectrophotometer based coupled DHDPS-DHDPR assay
HEK293 = experiment: Cytotoxicity against HEK293 cells assessed as reduction in cell viability measured after 48 hrs by MTT assay; assay type: cell-based; details: Homo sapiens, HEK293, 48 h
HepG2 = experiment: Cytotoxicity against human HepG2 cells assessed as reduction in cell viability measured after 48 hrs by MTT assay; assay type: cell-based; details: HepG2, 48 h
[2] = Aqueous solubility of the compound; assay type: physicochemical; details: buffer
[3] = Inhibition of Campylobacter jejuni DHDPS using ASA as a substrate in presence of NADPH by DHDPS-DHDPR coupled assay

With `O=C(O)CN1C(=O)S/C(=C\c2ccc3ccccc3c2)C1=O` the IC50 [1] was 76 µM, the EC50 (HEK293) was 200 µM and the EC50 (HepG2) was 200 µM.

For `CCOC(=O)CSC1=NC(=O)/C(=C/c2ccc(OC)cc2)S1`, the solubility [2] was “Insoluble”.

Work on `O=C(O)CN1C(=O)S/C(=C\c2cccnc2)C1=O` yielded an IC50 [1] of 138 µM.

In the case of `COc1ccc(/C=C2\SC(=S)N(CC(=O)O)C2=O)cc1`, the IC50 [1] is reported as 540 µM, the EC50 (HEK293) is reported as 200 µM and the EC50 (HepG2) is reported as 200 µM.

For `O=C(O)CN1C(=O)S/C(=C\c2ccc(OCc3ccccc3)cc2)C1=O`, the IC50 [1] was 71 µM, the EC50 (HEK293) was 200 µM and the EC50 (HepG2) was 200 µM.

In the case of `COc1cccc(/C=C2\SC(=O)N(CC(=O)O)C2=O)c1`, the IC50 [1] is reported as 110 µM.

Molecule `COc1ccc(/C=C2\NC(=S)NC2=O)cc1` has an IC50 [1] of 323 µM.

Work on `COc1ccc(/C=C2\SC(=S)NC2=O)cc1` yielded an IC50 [1] greater than 500 µM.

Work on `Cc1ccc(/C=C2\SC(=O)N(CC(=O)O)C2=O)cc1` yielded an IC50 [1] of 80 µM.

In the case of `COc1ccc(/C=C2\SC(=O)N(CC(=O)O)C2=O)cc1`, the IC50 [1] is reported as 47 µM, the EC50 (HEK293) is reported as greater than 500 µM and the EC50 (HepG2) is reported as greater than 500 µM.

For `CN(C)c1ccc(/C=C2\SC(=O)N(CC(=O)O)C2=O)cc1`, the IC50 [1] was greater than 500 µM.

Molecule `COc1ccc(/C=C2\NC(=O)NC2=O)cc1` has an IC50 [1] of 124 µM.

For `COc1ccc(/C=C2\SC(=O)N(CC(N)=O)C2=O)cc1`, the solubility ([2]; read-out: solubility) was less than 31 µM.

Work on `NCCCC[C@@](N)(CC[C@](N)(CCCCN)C(=O)O)C(=O)O` yielded a Ki [3] of 0.14 µM.

`COc1ccc(/C=C2\SC(=O)N(CC(=O)O)C2=O)cc1OC` gave an IC50 [1] of 116 µM.

Molecule `CCOc1ccc(/C=C2\SC(=O)N(CC(=O)O)C2=O)cc1` has an IC50 [1] of 72 µM.

`O=C(O)CN1C(=O)S/C(=C\c2ccccc2Cl)C1=O` gave an IC50 [1] of 137 µM.

In the case of `O=C(O)CN1C(=O)S/C(=C\c2ccc(C(=O)O)cc2)C1=O`, the IC50 [1] is reported as 70 µM.

`O=C(O)CN1C(=O)S/C(=C\c2cccc3ccccc23)C1=O` gave an IC50 [1] of 97 µM, an EC50 (HEK293) greater than 500 µM and an EC50 (HepG2) greater than 500 µM.

Work on `O=C(O)CN1C(=O)S/C(=C\c2ccccn2)C1=O` yielded an IC50 [1] of 80 µM.

Work on `COc1ccc(/C=C2\SC(=O)N(CC#N)C2=O)cc1` yielded a solubility ([2]; read-out: solubility) of less than 250 µM.

For `COc1ccc(/C=C2\SC(=O)N(CCCC(=O)O)C2=O)cc1`, the IC50 [1] was 67 µM.

`COc1ccc(/C=C2\NC(=O)N(CC(=O)O)C2=O)cc1` showed an IC50 [1] of 66 µM, an EC50 (HEK293) greater than 500 µM and an EC50 (HepG2) greater than 500 µM.

Molecule `O=C(O)CN1C(=O)S/C(=C\c2ccccc2)C1=O` has an IC50 [1] of 80 µM.

For `O=C(O)CN1C(=O)S/C(=C\c2ccc(F)cc2)C1=O`, the IC50 [1] was 92 µM.

In the case of `O=C(O)CN1C(=O)S/C(=C\c2ccc(OC(F)(F)F)cc2)C1=O`, the IC50 [1] is reported as 98 µM.

With `N#Cc1ccc(/C=C2\SC(=O)N(CC(=O)O)C2=O)cc1` the IC50 [1] was 80 µM.

`O=C(O)CN1C(=O)S/C(=C\c2ccc(O)cc2O)C1=O` showed an IC50 [1] of 162 µM.

In the case of `COc1ccc(CC2SC(=O)N(CC(=O)O)C2=O)cc1` (stereo not given), the IC50 [1] is reported as greater than 500 µM.

With `CC(=O)Nc1ccc(/C=C2\SC(=O)N(CC(=O)O)C2=O)cc1` the IC50 [1] was 68 µM.

`O=C(O)CN1C(=O)S/C(=C\c2c[nH]cn2)C1=O` showed an IC50 [1] of 94 µM.

`COc1ccc(/C=C2\SC(=O)N(Cc3nnn[nH]3)C2=O)cc1` gave an IC50 [1] of 89 µM.

`CSc1ccc(/C=C2\SC(=O)N(CC(=O)O)C2=O)cc1` gave an IC50 [1] of 125 µM.

Molecule `O=C(O)CN1C(=O)S/C(=C\c2ccc(Br)cc2)C1=O` has an IC50 [1] of 74 µM.

`O=C(O)CN1C(=O)S/C(=C\c2ccc(O)c(Cl)c2)C1=O` showed an IC50 [1] of 316 µM.

For `O=C(O)CN1C(=O)S/C(=C\c2ccncc2)C1=O`, the IC50 [1] was 90 µM.

In the case of `O=C(O)CN1C(=O)S/C(=C\c2ccc3ccccc3n2)C1=O`, the IC50 [1] is reported as 110 µM.

With `O=C(O)CN1C(=O)S/C(=C\c2ccc(C(F)(F)F)cc2)C1=O` the IC50 [1] was 122 µM.

Work on `COc1ccc(/C=C2\SC(=O)N(CCC(=O)O)C2=O)cc1` yielded an IC50 [1] greater than 250 µM.

`O=C(O)CN1C(=O)S/C(=C\c2ccc(O)cc2)C1=O` gave an IC50 [1] of 103 µM.

For `COc1ccc(/C=C2\SC(=O)N(CC(=O)O)C2=O)cn1`, the IC50 [1] was 46 µM, the EC50 (HEK293) was greater than 500 µM and the EC50 (HepG2) was greater than 500 µM.

With `O=C(O)CN1C(=O)S/C(=C\c2cccc(Cl)c2)C1=O` the IC50 [1] was 121 µM.

`O=C(O)CN1C(=O)S/C(=C\c2cccs2)C1=O` showed an IC50 [1] of 72 µM, an EC50 (HEK293) greater than 500 µM and an EC50 (HepG2) greater than 500 µM.

Work on `COc1cccc(/C=C2\SC(=O)N(CC(=O)O)C2=O)c1OC` yielded an IC50 [1] of 108 µM.

With `Nc1ccc(/C=C2\SC(=O)N(CC(=O)O)C2=O)cc1` the IC50 [1] was 153 µM.

In the case of `COc1ccc(/C=C2\NC(=S)N(CC(=O)O)C2=O)cc1`, the IC50 [1] is reported as 222 µM, the EC50 (HEK293) is reported as greater than 500 µM and the EC50 (HepG2) is reported as greater than 500 µM.

For `COc1ccccc1/C=C1\SC(=O)N(CC(=O)O)C1=O`, the IC50 [1] was 71 µM.

Molecule `O=C(O)CN1C(=O)S/C(=C\c2ccc(Cl)cc2)C1=O` has an IC50 [1] of 84 µM.

In the case of `O=C(O)CN1C(=O)S/C(=C\c2ccsc2)C1=O`, the IC50 [1] is reported as 87 µM, the EC50 (HEK293) is reported as greater than 500 µM and the EC50 (HepG2) is reported as greater than 500 µM.

Molecule `O=C(O)CN1C(=O)S/C(=C\c2ccc(=O)[nH]c2)C1=O` has an IC50 [1] of 59 µM.

Molecule `COc1ccc(/C=C2\SC(=N)NC2=O)cc1` has an IC50 [1] of 156 µM.

`COc1ccc(/C=C2\SC(=O)NC2=O)cc1` gave an IC50 [1] of 71 µM, an EC50 (HEK293) of 172 µM and an EC50 (HepG2) of 200 µM.

Molecule `COc1ccc(C=C2SC(=O)N(CC(=O)O)C2=O)cc1` (mixture of isomers) has an IC50 [1] of 39 µM.
